This is an account of results in patent US20190388389A1, “METHODS AND COMPOSITIONS OF CARNOSOL FOR INHIBITING UVB-INDUCED SKIN DAMAGE” (Ohio University, priority 2017, published 2019).

Data set [1] deals with HaCaT cells. Briefly: Cell survival analysis (Annexin V/PI flow cytometry), HaCaT. In kind it is cell-based. How it is done:
FIGS. 6A-6C: Carnosol protects UVB-induced cell death. Cells were exposed to UVB radiation with different dose of carnosol treatment. At indicated time point, cells were collected and Annexin V/PI apoptosis detection kit was used to detect cell apoptosis. (FIG. 6A) HaCaT cell survival rate with different concentrations (μM) of carnosol treatment at 12 h post UVB radiation. (FIG. 6B) Time dependent assay (h) in the presence or absence of carnosol treatment in HaCaT cells. (FIG. 6C) MEF cells treated with 20 μM carnosol at indicated time point (h). The error bars present the standard deviation of three sets of independent experiments. *p<0.05 versus control group; **p<0.05 versus corresponded UV group.
UVB was generated from a Bench XX-Series UV Lamp (UVP Inc.) equipped with two 15-watt UVB tubes (UVP Inc.). The intensity of UVB was calibrated by a UVP model UVX digital radiometer (UVP Inc.) after the lamps warmed up for 5 min. For irradiating cells, the dose rate for 8 mJ/cm^2 or 50 mJ/cm^2 of UVB radiation was 0.8 or 3.8 mW/s respectively. Medium was removed before exposing the cells to UVB. After UVB radiation, fresh medium was added to the culture plates with or without drugs, and the cells were continue incubating at 37° C. with 5% CO2 until further analysis. Carnosol was disovled in DMSO and was irradiated with 50 mJ/cm^2 of UVB radiation at a dose rate of 3.8 mW/s before subjecting to cells or structure analysis using Mass Spectrum.
Carnosol (Cayman) (FIG. 1) was added to cells at indicated concentration at 1 h before exposing the cells to UVB radiation. After radiation, cells were continuously incubated with or without carnosol in the medium until further analysis.
Total cell number of 1×10^5 was used for each analysis using flow cytometer. Fluorescein isothiocyanate (FITC) conjugated-annexin V (ANXS)/propidium iodide (PI) apoptosis detection kit (BD Biosciences) were used to stain the cells through the determination of the loss of membrane phospholipid […] and membrane integrity. Cell survival rate (R) was calculated as: R=[1×10^5−number of positive stained cells]/1×10^5. Briefly, the cells were harvested by 0.25% trypsin digestion, combined with the cells floating in the medium and washed twice with cold PBS. The cells were then suspended in ANXS binding buffer (10 mM Hepes/NaOH, pH 7.4, 140 mM NaCl and 2.5 mM CaCl2). The cell suspension was mixed with 5 μL ANXS-FITC and 5 μL PI. The cell mixture was incubated for […] in dark at room temperature and the ANXS/PI double-stained cells were analyzed using a FACSort Flow Cytometer (BD Science) equipped with CellQuest software (BD Science).

Data set [2] has as its system ONOO^− in HaCaT cells. Nature of the data set: Peroxynitrite measurement (DAR) after UVB radiation. In kind it is cell-based, Human. To be noted: 20 μM carnosol. How it is done: FIGS. 4A-4B: Quantitative analysis of NO* and ONOO^− after UVB radiation. HaCaT cells were irradiated with UVB radiation in the presence or absence of carnosol (20 μM). At indicated time point, cells were stained with DAF-2DA or DAR. The fluorescent intensity was then measured and normalized to cell viability. (FIG. 4A) Quantitative measurement of NO*. (FIG. 4B) Quantitative measurement of ONOO^−. *p<0.05 versus corresponded group with carnosol treatment upon UVB radiation.
The level of NO* was measured by 5 mM diaminofluorescein diacetate (DAF-2DA) (ex490/em520 nm) and ONOO^− was measured by 5 mM diaminorhodamine (DAR) (ex488/em515 nm). 1×10^5 HaCaT cells were seeded in 96-well plate one day before measurement. […] The cells were then incubated in dark for 2 h at room temperature and the fluorescence was measured by luminometer (Molecular devices Spectra Max M2). The reading was then normalized by AlamarBlue cell viability assay (Life technology). 10% of the Alamar Blue reagent was added to cells with medium followed by 2 h incubation at 37° C. in dark then read the fluorescent at ex570/em590 nm using luminometer (Molecular devices Spectra Max M2).
Both NO* and ONOO^− are induced by UVB radiation. By using DAF-2DA (5 mM) and DAR (5 mM), the effect of carnosol on intracellular NO* and ONOO^− level, in a time dependent manner upon UVB radiation, was also measured.

As for `CC(C)c1cc2c(c(O)c1O)[C@@]13CCCC(C)(C)[C@@H]1C[C@@H]2OC3=O` [carnosol], the “cell survival with UVB radiation” value in data set [1] (1 μM carnosol, 12 h post UVB) is on record as “no statistically significant effect”; in data set [1] (10 μM carnosol, 12 h post UVB), “no statistically significant effect”. Besides, the “toxicity to the cells without UVB radiation” value in data set [1] (30 μM carnosol) is “limited toxicity”. Moreover, the cell survival entry in data set [1] (carnosol alone 1-30 μM, no UVB, 12 h) is given as “no significant cell survival change”. The cell survival rate in data set [1] (dose assay, 20 μM carnosol, 12 h post UVB, UVB alone 20%) is reported as 30%; in data set [1] (dose assay, 30 μM carnosol, 12 h post UVB, vs 20 μM), “no further increasing”; in data set [1] (time assay, 20 μM carnosol, 6 h post UVB), “no significance”; in data set [1] (time assay, 20 μM carnosol, 12 h post UVB, UVB alone 30%), 40%; in data set [1] (time assay, 20 μM carnosol, 24 h post UVB, UVB alone 7%), 15%. Moreover, in data set [2] (average from 2 h to 24 h post UVB), the “reduction of ONOO^− level” value is given as “about 40%”. In data set [2] (no UVB), the “ONOO^− level of cells without radiation” value is listed as “little effect”.
